Values of other authors as cited in US20050004105A1, “Treatment for a attention-deficit hyperactivity disorder” (priority 2003, published 2005).
Counter-ions that a name gives are not always drawn. Like-named read-outs stand apart in the source and are kept apart here.

What was measured:
[1] = target: α1 receptor; conditions: rat forebrain membranes, [3H]7-MeOxy-prazosin; exemplary protocol; read-out: Ki of reference compound, α1 binding assay; cited from earlier work
[2] = target: 5-HT1B/1D receptor; conditions: [125I]iodocyanopindolol 0.15 nM in striatum; exemplary protocol; read-out: Ki of reference compound, 5-HT1B/1D binding assay; cited from earlier work
[3] = target: 5-HT1B/1D receptor; conditions: [3H]5-CT […] or 2 nM in cortex; exemplary protocol; read-out: Ki of reference compound, 5-HT1B/1D binding assay; cited from earlier work

Cc1ccc(N(CC2=NCCN2)c2cccc(O)c2)cc1 [phentolamine mesylate]
Ki [1]: ~5.4 nM

NCCc1c[nH]c2ccc(O)cc12 [5-HT]
Ki [2]: ~13.8 nM

NCCc1c[nH]c2ccc(C(N)=O)cc12 [5-CT, 5-carboxyamidotryptamine]
Ki [3]: 0.7 to 1.1 nM
